Reference: patent publication US9862690B2, “Treatment of pulmonary and other conditions” (University of Pittsburgh—of the Commonwealth System of …, priority 2013, dated 2018)

How the values were obtained:
[1] = TRAP assay (quenching of ABTS+ radical cation); format: biochemical; conditions: 10 μmol compound, 5 min, absorbance 734 nm; Troxol reference
Method: The anti-oxidant activities of PB 141 were determined by the ability of this compound to react with pre-formed radical monocation of 2,2′-azinobis-(3-ethylbenzothiazoline)-6-sulfonic acid (ABTS^+). Data are representative of one of two independent experiments; n=3; *** P<0.001 versus Troxol.
The anti-oxidant activity of PB141 or PB157 was determined by the ability of these compounds to react with the pre-formed radical monocation of 2,2′-azinobis-(3-ethylbenzothiazoline)-6-sulfonic acid (ABTS^+). ABTS (1.8 mmol) was reacted overnight with potassium persulfate (0.63 mmol) in double distilled water, at room temperature in the dark, to generate the dark blue ABTS^+ radical cation. This radical cation has a maximum absorption at 734 nm. Immediately prior to the experiment, ABTS^+ was diluted with absolute ethanol to an absorbance of approximately 0.7 at 734 nm. PB141 or PB157 (10 μmol) was added to ABTS^+ (1 ml) and mixed by vortexing. The reaction was allowed to stabilize for 5 min and the absorbance was measured. The anti-oxidant activities of these compounds were determined by their ability to quench the color of the radical cation. Troxol (10 μmol) was used as reference standard.

[2] = system: mice (lung, kidney, liver and other organs); experiment: Toxicity of long-term, high-dose nebulized delivery; format: in vivo; conditions: 25 mg/kg or 250 mg/kg aerosolized daily up to 30 days
Method: PB141 was delivered to mice by nebulization at doses of 25 or 250 mg/kg for up to 30 days. (A) Lungs were excised, sectioned, and examined histologically for evidence of inflammation or injury. (B) Potential kidney and liver injury were assessed by serum levels of creatinine, AST, and ALT. […] Acute lung injury was induced in mice by intratracheal administration of LPS. Thirty min later PBS or varying concentrations of PB141 were delivered into cage air by nebulization. Following sacrifice, nuclear proteins were isolated from lungs and used to determine DNA-binding activity of the p65 subunit of the pro-inflammatory transcription factor NF-κB.
PB141 (25 mg/kg or 250 mg/kg) was aerosolized to mice daily for up to 30 consecutive days. The standard dose used in efficacy studies is 25 mg/kg for 1-10 days. At the conclusion of each experiment blood was collected and the lungs were excised and examined histopathologically for evidence of injury or toxicity. Serum levels of creatinine and aspartate (AST) and alanine (ALT) aminotransferases were measured using enzyme-linked immunosorbent assay (ELISA) kits (R&D Systems, Minneapolis, Minn.) according to the manufacturer's instructions. At the end of 30 days' exposure, other organs were also excised and similarly examined (data not shown).

[3] = system: PMNs; experiment: PMN adhesion and transendothelial migration, cells of endotoxin-treated mice; format: in vivo; conditions: PMNs from peripheral blood of endotoxin-treated mice
Method: For additional in vitro studies, after the treatment described above alveolar macrophages were isolated from the BAL fluid and plated in DMEM+10% FBS. After 1 h, RNA was isolated and expression of the different genes was determined using real-time PCR; results were normalized to values for the housekeeping genes glyceraldehyde-3-phosphate dehydrogenase (GAPDH) and […]. […] In other experiments, PMNs were isolated from peripheral blood of endotoxin-treated mice by hetastarch exchange transfusion. PMN adhesion was assessed with the Cytoselect Leukocyte-Endothelium Adhesion Assay kit (CBA-210; Cell Biolabs) and transendothelial PMN migration was determined with the Cytoselect Leukocyte Transmigration Assay kit (CBA-212; Cell Biolabs).

[4] = system: human lung adenocarcinoma cell lines (NCI-H661, NCI-H441 and NCIH1299); experiment: Proliferation (BrdU) and apoptosis (TUNEL) of NNK-treated lung adenocarcinoma cells; format: cell-based; conditions: pretreated 1 to 5 μM, then 1 μM NNK; data not shown
Method: For further in vitro studies, human lung adenocarcinoma cell lines (NCI-H661, NCI-H441 and NCIH1299) were obtained from American Type Culture Collection. Cells were treated with 1 μM NNK for 1 hr. In some experiments cells were pretreated with 1 to 5 μM PB141 before treatment with NNK. Cell proliferation was assessed by BrdU proliferation kit (Roche Applied Science). Apoptosis was assessed by TUNEL assay.

[5] = system: chronic hypoxia-induced pulmonary hypertension in mice; experiment: Chronic hypoxia-induced pulmonary hypertension model; format: in vivo; conditions: 25 mg/kg nebulized during last 10 days of 3 weeks hypoxia
Method: CH-induced pulmonary hypertension was produced in mice by exposing them to chronic hypoxia (CH; FIO2 10%) or room air (N; control) for 3 weeks. During the last 10 days of exposure, PB141 (25 mg/kg) or vehicle (saline) was nebulized and delivered to cage air via a micropump nebulizer. Twenty-four hours following the last nebulization mice were anesthetized and the right internal jugular vein of each mouse was surgically exposed and cannulated with a pressure transducer that was advanced to record right ventricular pressure, then advanced further to measure pulmonary arterial pressure: (top left) mean pulmonary arterial pressure; (top right) right ventricular systolic pressure (RVSP); (bottom left) […]; (bottom right) right ventricular hypertrophy. Data are representative of one of two independent experiments with n=4-6 mice per group.
CH-induced pulmonary hypertension was produced in mice by exposing them to CH (FIO2 10%) or room air for 3 weeks. During the last 10 days of exposure, PB141 (25 mg/kg) or vehicle (saline) was nebulized and delivered to cage air via a micropump nebulizer. Twenty-four hours following the last nebulization lung samples were obtained. Graphs show medial wall thickness of a-SMA-positive acinar blood vessels and percent of non-muscularized, partially muscularized, and fully muscularized small vessels. Data are representative of one of two independent experiments with n=4-6 mice per group.
Pulmonary hypertension was induced in mice by exposing them to chronic hypoxia (FiO2 10%) for 3 weeks. Control mice breathed room air during the last 10 days of exposure, PB141 (25 mg/kg) or vehicle (saline) was nebulized into the cage air for 30 min via a nebulizer.
Twenty-four hours following the last PB141 administration, mice were anesthetized, and the right internal jugular vein of each mouse was surgically exposed and cannulated with a pressure transducer that was advanced to record right ventricular systolic pressure (RVSP), which is elevated in pulmonary hypertension. […] The heart was then excised and the right ventricle was separated from the left ventricle (including the septum). Each ventricle was weighted separately.
Twenty-four hours following the last PB141 administration, lung samples were obtained. Immunostaining for α-SMA, a key marker in pulmonary hypertension, was performed in paraffin sections of lung and the sections were examined microscopically. […] All these measures of vascular wall remodeling in small pulmonary vessels, the pathophysiology underlying pulmonary hypertension, were reduced by PB141 treatment (FIG. 20).

## CC(=O)N[C@@H](CSC(CC(=O)CC(SC[C@H](NC(C)=O)C(=O)O)c1cnccn1)c1cnccn1)C(=O)O (some centres unmarked) [PB141]
[1]
  Anti-oxidant activity (ability to quench ABTS+ radical cation): clearly demonstrated
[2]
  Injury or toxicity (lung histopathology, serum creatinine, AST, ALT, other organs): No evidence of injury or toxicity
[3]
  PMN adhesion: decreased
  Transendothelial PMN migration: decreased
[4]
  Apoptosis (TUNEL): induced apoptosis
  Cell proliferation (BrdU): significantly decreased
[5]
  Increase in ratio of right ventricular weight to left ventricle plus septum: significantly reduced
  Increase in right ventricular systolic pressure (RVSP): significantly smaller
  Measures of vascular wall remodeling (α-SMA-positive vessels, muscularization, median wall thickness): reduced
  Pulmonary arterial pressure: significantly smaller
  Pulmonary vascular resistance: significantly smaller
